# Values joined by “and” are separate entries in the source; they are usually repeats but may differ in a detail not shown here. Equal entries are not always repeated.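 Cultured in 96-well plates, cells were exposed to test compound for 48 hours across five concentrations. Here, GI50 denotes the concentration required for 50% inhibition of growth. TGI denotes the concentration required for complete inhibition of growth.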
# Tests used:
# Experiment in all cases: NCI tumour cell line growth inhibition, 48 h
# [1] = system: LOX IMVI melanoma
# [2] = system: SF-539 CNS
# [3] = system: SK-MEL-28 melanoma
# [4] = system: OVCAR-5 ovarian
# [5] = system: M19-MEL melanoma
# [6] = system: DMS 114 small cell lung
# [7] = system: KM12 colon
# [8] = system: SF-268 CNS
# [9] = system: RXF 393 renal
# [10] = system: CCRF-CEM leukemia
# [11] = system: SK-MEL-2 melanoma
# [12] = system: NCI-H23 lung
# [13] = system: HOP-18 NSCLC
# [14] = system: RPMI-8226 leukemia
# [15] = system: HOP-62 NSCLC
# [16] = system: SF-295 CNS
# [17] = system: A549 NSCLC
# [18] = system: ACHN renal
# [19] = system: TK-10 renal
# [20] = system: SW-620 colon
# [21] = system: NCI-H522 lung
# [22] = system: U251 CNS
# [23] = system: XF 498 CNS
# [24] = system: RXF-631 renal
# [25] = system: EKVX NSCLC
# [26] = system: SNB-78 CNS
# [27] = system: HCT-116 colon
# [28] = system: SK-MEL-5 melanoma
# [29] = system: DLD-1 colon
# [30] = system: HL-60(TB) leukemia
# [31] = system: SNB-75 CNS
# [32] = system: SK-OV-3 ovarian
# [33] = system: MOLT-4 leukemia
# [34] = system: COLO 205 colon
# [35] = system: IGROV1 ovarian
# [36] = system: OVCAR-3 ovarian
# [37] = system: 786-0 renal
# [38] = system: MALME-3M melanoma
# [39] = system: LXFL 529 NSCLC
# [40] = system: KM20L2 colon
# [41] = system: A498 renal
# [42] = system: NCI-H460 lung
# [43] = system: HCC-2998 colon
# [44] = system: HT29 colon
# [45] = system: UO-31 renal
# [46] = system: UACC-257 melanoma
# [47] = system: OVCAR-8 ovarian
# [48] = system: K-562 leukemia
# [49] = system: DMS 273 small cell lung
# [50] = system: HOP-92 NSCLC
# [51] = system: P388 leukemia
# [52] = system: P388/ADR leukemia
# [53] = system: UACC-62 melanoma
# [54] = system: NCI-H226 lung
# [55] = system: SNB-19 CNS
# [56] = system: HCT-15 colon
# [57] = system: CAKI-1 renal
# [58] = system: M14 melanoma
# [59] = system: OVCAR-4 ovarian
# [60] = system: SR leukemia
# [61] = system: SN12C renal
smiles,measurement,setting,value
O=C1/C(=C/c2ccc(Cl)cc2)COc2ccc(Br)cc21,TGI,[1],> 100 µM
same,TGI,[2],> 100 µM
same,TGI,[3],> 100 µM
same,TGI,[4],> 100 µM
same,TGI,[5],> 100 µM
same,TGI,[6],> 100 µM
same,TGI,[7],> 100 µM
same,TGI,[8],> 100 µM
same,TGI,[9],> 100 µM
same,TGI,[10],> 100 µM
same,TGI,[11],> 100 µM
same,TGI,[12],> 100 µM
same,TGI,[13],> 100 µM
same,TGI,[14],74.4 µM
same,TGI,[15],> 100 µM
same,TGI,[16],> 100 µM
same,TGI,[17],> 100 µM
same,TGI,[18],> 100 µM
same,TGI,[19],> 100 µM
same,TGI,[20],> 100 µM
same,TGI,[21],> 100 µM
same,TGI,[22],> 100 µM
same,TGI,[23],> 100 µM
same,TGI,[24],> 100 µM
same,TGI,[25],> 100 µM
same,TGI,[26],> 100 µM
same,TGI,[27],> 100 µM
same,TGI,[28],> 100 µM
same,TGI,[29],> 100 µM
same,TGI,[30],> 100 µM
same,TGI,[31],> 100 µM
same,TGI,[32],> 100 µM
same,TGI,[33],> 100 µM
same,TGI,[34],> 100 µM
same,TGI,[35],> 100 µM
same,TGI,[36],> 100 µM
same,TGI,[37],> 100 µM
same,TGI,[38],> 100 µM
same,TGI,[39],> 100 µM
same,TGI,[40],> 100 µM
same,TGI,[41],> 100 µM
same,TGI,[42],> 100 µM
same,TGI,[43],> 100 µM
same,TGI,[44],> 100 µM
same,TGI,[45],> 100 µM
same,TGI,[46],> 100 µM
same,TGI,[47],> 100 µM
same,TGI,[48],> 100 µM
same,TGI,[49],> 100 µM
same,TGI,[50],> 100 µM
Nc1ncn(C2OC(CO)C(O)C2O)c(=O)n1 (centres undefined),TGI,[5],> 250 µM and 28.4 µM
same,GI50,[6],9.47 µM and 1.17 µM
same,GI50,[51],0.55 µM
same,TGI,[51],36.7 µM and 7.61 µM
same,TGI,[13],250 µM and 125 µM
same,TGI,[23],61.2 µM and 11.4 µM
same,TGI,[25],215 µM and > 72.8 µM and 26.5 µM
same,GI50,[52],0.611 µM
same,TGI,[52],41.1 µM and 11.6 µM
CC(=O)OC1CC2C(C)(C)C(=O)C=C[C@]2(C)C2CCC3(C)C(=CCC3[C@H](CO)C[C@H](O)C(=O)C(C)(C)O)[C@]12C (some centres undefined),TGI,[1],33.6 µM
same,TGI,[2],35.1 µM
same,TGI,[3],36.5 µM
same,TGI,[4],83.3 µM
same,TGI,[5],97.3 µM
same,TGI,[6],> 100 µM
same,TGI,[7],39 µM
same,TGI,[8],82.2 µM
same,TGI,[53],31.6 µM
same,TGI,[9],31.3 µM
same,TGI,[10],66.3 µM
same,TGI,[11],51.3 µM
same,TGI,[54],42.2 µM
same,TGI,[13],> 100 µM
same,TGI,[14],64.2 µM
same,TGI,[55],> 100 µM
same,TGI,[16],27.7 µM
same,TGI,[17],79.3 µM
same,TGI,[18],50 µM
same,TGI,[19],65.9 µM
same,TGI,[20],41 µM
same,TGI,[21],52.3 µM
same,TGI,[56],40.4 µM
same,TGI,[22],31.5 µM
same,TGI,[24],> 100 µM
same,TGI,[25],38.5 µM
same,TGI,[26],> 100 µM
same,TGI,[27],> 100 µM
same,TGI,[28],42 µM
same,TGI,[29],30.3 µM
same,TGI,[30],43.8 µM
same,TGI,[31],91.6 µM
same,TGI,[32],48.2 µM
same,TGI,[33],89.5 µM
same,TGI,[34],> 100 µM
same,TGI,[35],49.1 µM
same,TGI,[36],35.4 µM
same,TGI,[37],34.1 µM
same,TGI,[38],33.3 µM
same,TGI,[39],> 100 µM
same,TGI,[40],28 µM
same,TGI,[57],55.3 µM
same,TGI,[41],30.7 µM
same,TGI,[42],40.1 µM
same,TGI,[43],34.1 µM
same,TGI,[58],45.6 µM
same,TGI,[59],> 100 µM
same,TGI,[44],28.1 µM
same,TGI,[45],39.3 µM
same,TGI,[60],86.2 µM
same,TGI,[46],30.8 µM
same,TGI,[61],75.9 µM
same,TGI,[47],33.1 µM
same,TGI,[48],> 100 µM
same,TGI,[49],> 100 µM

# From PubChem BioAssay (NCI)
